Key:
[1] = system: H9c2 (rat cardiomyocytes); test: RoK assay, number of host cells nuclei (drug-related cytotoxicity, H9c2 output, Cmin_Tox); conditions: H9c2 host cells
Method: For this high-content intracellular imaging assay, H9c2 cells were seeded in 225 cm^2 T- FLASK in DMEM with 10% FBS for 4 h to allow attachment. T. cruzi trypomastigotes, collected at days 5 to 8 after infection from LLC-MK2 parasite infected cultures, were allowed to swim out for 4 h at 37°C from a centrifuged pellet (1,600 x g / 10 min). Trypomastigotes were then collected and counted in a CASY Cell Counter using the 60 μm capillary. […] Cells were washed once with PBS before incubation of the infected H9c2 monolayer with trypsin (Life-Technologies) to detach cells from the flask. Cells were counted in a CASY Cell Counter, using the 150 μm capillary, and their density set at 5 x 10^4 cells/mL in supplemented DMEM. Infected H9c2 were dispensed into 384-well plates at 50 μL per well using a Multidrop Combi dispenser. Control wells used to determine a 100% parasitic growth (full 6th column of each plate) were left untreated, whereas not infected cells were added in the control wells used as 0% parasite growth (or 100% parasite growth inhibition; full 18th column of each plate). The four plates corresponding to each RoK assay were predispensed for the same mother plate. […] Cultures were then fixed and stained with 50 μL per well of a PBS solution containing 4% formaldehyde and 2 μM DRAQ5 DNA dye (BioStatus, UK). Then plates were read in a PerkinElmer Opera Phenix using a 20x objective, 3 fields per well. DRAQ5 signal was detected using 640 nm excitation laser and a 690/50 nm emission detection filter. Automated image analysis was performed with a script developed on Acapella High Content Imaging and Analysis Software (PerkinElmer). Two outputs were provided for each sample well: (1) number of host cells nuclei to determine drug-related cytotoxicity (aka H9c2) and (2) number of amastigotes per cell as infection level measurement (aka AM/CELL). Each output is plotted as a time course for each compound at every concentration. This assay was adapted from Alonso-Padilla et al. and Peña et al..
• ME (Maximum Effect) is the maximum percentage of parasite burden reduction reached by any compound concentration. Compounds that decrease the initial parasite load will show a positive value of ME, whereas compounds that allow the progression of infection will render a negative ME value. […] It is calculated for the MCC50 (t50%_MCC50) and for the maximum concentration (t50%_Cmax). […] The value of this parameter is not either interpolated or extrapolated, and it refers to the first experimental time-course point at which a 50% of effect is reached or exceeded. • tlag defines the time elapsed for one particular concentration to reduce parasite burden between two consecutive points at any moment of the time course. It is calculated for the MCC50 (tlag_MCC50) and for the maximum concentration (tlag_Cmax). The value of this parameter is not either interpolated or extrapolated, and it refers to the first experimental time-course point of a positive slope in the normalised plot (i.e. %Cidal_Response). • Cmin_Tox (Minimal CytoToxic Concentration) is the lowest compound concentration that is reducing the number of host mammalian cells below 50% of initial cell density. Cytotoxic compounds may mislead a bona fide antiparasitic action. Therefore, this descriptor is used to flag this kind of compounds and warn about the genuine meaning of the rest of descriptors.

[2] = system: Trypanosoma cruzi; conditions: cited from earlier work
[3] = system: TcCYP51; conditions: cited from earlier work; for CYP51 pIC50: formerly reported
[4] = system: T. cruzi intracellular amastigotes in H9c2 cells; test: RoK combination assay with BNZ; format: cell-based, Trypanosoma cruzi; conditions: 50 μM BNZ
Method: The assay was performed following the same experimental procedure mentioned above in the RoK assay. The infected H9c2 cells were treated with final 10 and 50 μM concentrations of BNZ and DMSO before being dispensed into the plates containing the compounds. For the combination with 50 μM BNZ, two plates were incubated for 4 and 24 hours respectively before being fixed. For the combinations with 10 μM BNZ and with DMSO, four plates for each condition were incubated for 4, 24, 48 and 72 hours before being fixed.

[5] = design: method as in PMID 25805302; conditions: cited from earlier work

For `CC[C@@H]([C@H](C)O)n1ncn(-c2ccc(N3CCN(c4ccc(OC[C@@H]5CO[C@@](Cn6cncn6)(c6ccc(F)cc6F)C5)cc4)CC3)cc2)c1=O` [Posaconazole, reference compound], the “Cmin_Tox” value [1] is given as 42.2 µM, the “curative dose in mice” value [2] is given as 20 mg/kg/day and the “CYP51 pIC50” value [3] is given as 7.3.
With `O=C(Cn1ccnc1[N+](=O)[O-])NCc1ccccc1` [Benznidazole, benznidazole, reference compound] the “Cmin_Tox” value [1] was over 50 µM, the AM/CELL ([4]; no compound 1, 4 hours) was 2.023 and the AM/CELL ([4]; no compound 1, 24 hours) was 1.3207. For the same compound, the CYP51 mean ([3]; TcCYP51 enzyme inhibition, mean, figure 1B, ref original boxes paper) was 4.3, the “CYP51 pIC50” value [3] was under 4 and the “average time to interruption of treatment” value [5] was 26.7 days.
For `O=c1[nH]cnc2c([C@@H]3O[C@H](CO)[C@@H](O)[C@H]3O)n[nH]c12` [TCMDC-143083, Formycin B], the “Cmin_Tox” value [1] is listed as over 50 µM and the “CYP51 pIC50” value [3] is listed as under 4.
In the case of `COc1ccccc1-c1c(C)[nH]c2nc(N)nc(C)c12` [TCMDC-143610], the “Cmin_Tox” value [1] is given as over 50 µM and the “CYP51 pIC50” value [3] is given as 4.1.
In the case of `CCC(=O)Nc1ccc(-c2nc3ccc(Cl)cc3[nH]2)cc1` [TCMDC-143135], the “Cmin_Tox” value [1] is listed as over 50 µM and the “CYP51 pIC50” value [3] is listed as under 4.
In the case of `CCOc1cnn(C)c(=O)c1Nc1ccc(C(=O)NCc2ccc(F)cc2)cc1` [TCMDC-143319], the “Cmin_Tox” value [1] is given as over 50 µM and the “CYP51 pIC50” value [3] is given as 5.4.
For `CCCN1CCN(Cc2ccc(S(=O)(=O)Nc3cccc(C)c3)cc2)CC1.O=C(O)C(F)(F)F.O=C(O)C(F)(F)F` [TCMDC-143550], the “Cmin_Tox” value [1] is listed as over 50 µM and the “CYP51 pIC50” value [3] is listed as under 4.
For `CCCc1nc2nc(N)nc(N)c2cc1CC` [TCMDC-143606], the “Cmin_Tox” value [1] is listed as over 50 µM and the “CYP51 pIC50” value [3] is listed as under 4.
In the case of `COc1ccc(CN(C)Cc2ccncc2)cc1-c1ccc(S(=O)(=O)NC2CCC2)s1.O=C(O)C(F)(F)F.O=C(O)C(F)(F)F` [TCMDC-143084], the “Cmin_Tox” value [1] is listed as over 50 µM and the “CYP51 pIC50” value [3] is listed as 7.1.
For `COc1ccc(NS(=O)(=O)c2cccc(NC(=O)c3cc(F)cc(F)c3)c2)cc1` [TCMDC-143108], the “Cmin_Tox” value [1] is given as over 50 µM and the “CYP51 pIC50” value [3] is given as under 4.
For `Clc1ccc(Sc2cnccc2N2CCOCC2)cc1` [TCMDC-143602], the “Cmin_Tox” value [1] is given as over 50 µM and the “CYP51 pIC50” value [3] is given as 7.5.
For `CCN(Cc1ccncc1)Cc1ccc(NC(=O)c2cc(-c3ccc(F)cc3)n[nH]2)cc1` [TCMDC-143433], the “Cmin_Tox” value [1] is listed as over 50 µM and the “CYP51 pIC50” value [3] is listed as 7.1.
For `O=C(C1CCCCC1)N1CCN(c2nnc(-c3ccccc3)c3ccccc23)CC1` [TCMDC-143511], the “Cmin_Tox” value [1] is given as over 50 µM and the “CYP51 pIC50” value [3] is given as under 4.
For `c1ccc2c(CCOc3nccnc3-c3ccncc3)c[nH]c2c1` [TCMDC-143562], the “Cmin_Tox” value [1] is listed as over 50 µM and the “CYP51 pIC50” value [3] is listed as 7.2.
For `O=C(NC1C(=O)N(c2ccccc2)C1c1cccnc1)c1ccc(Cl)s1` (stereo not drawn) [TCMDC-143324], the “Cmin_Tox” value [1] is listed as over 50 µM and the “CYP51 pIC50” value [3] is listed as 6.7.
For `CCCCNc1nccc(-c2c(-c3ccc(F)cc3)nn3c(N4CCOCC4)cccc23)n1` [TCMDC-143617], the “Cmin_Tox” value [1] is given as over 50 µM and the “CYP51 pIC50” value [3] is given as under 4.
In the case of `Cn1cc(CN2CCN(c3ccc4c(c3)CCN(C(=O)[C@H]3C[C@@H]3c3ccccc3)CC4)CC2)cn1` [TCMDC-143537], the “Cmin_Tox” value [1] is listed as over 50 µM and the “CYP51 pIC50” value [3] is listed as 4.8.
For `CC(C)c1cc(C(=O)N2CCCC(c3cc4ncccc4[nH]3)C2)on1` (stereo not drawn) [TCMDC-143439], the “Cmin_Tox” value [1] is given as over 50 µM and the “CYP51 pIC50” value [3] is given as 4.3.
In the case of `Cc1c(C(C)NC(=O)Nc2cccc(Cl)c2)sc2ncnn12` (stereo not drawn) [TCMDC-143405], the “Cmin_Tox” value [1] is given as over 50 µM and the “CYP51 pIC50” value [3] is given as 6.9.
In the case of `CCCCn1nnnc1CSc1nc(C)cc(C)c1C#N` [TCMDC-143315], the “Cmin_Tox” value [1] is listed as over 50 µM and the “CYP51 pIC50” value [3] is listed as 4.3.
In the case of `CC(=Cc1ccccc1)CN1CCC(=O)N(Cc2cccnc2)CC1` [TCMDC-143421], the “Cmin_Tox” value [1] is listed as over 50 µM and the “CYP51 pIC50” value [3] is listed as 7.
In the case of `O=C(NCCc1ccccn1)C(c1cn[nH]c1)N1CCN(c2ccc(Cl)c(Cl)c2)CC1` (stereo not drawn) [TCMDC-143411], the “Cmin_Tox” value [1] is listed as over 50 µM and the “CYP51 pIC50” value [3] is listed as 6.9.
For `Cc1[nH]nc2c1C(c1ccc(OCc3ccccc3F)cc1)SCC(=O)N2` (stereo not drawn) [TCMDC-143328], the “Cmin_Tox” value [1] is given as over 50 µM and the “CYP51 pIC50” value [3] is given as under 4.
For `Cc1c(C#N)c([N+](=O)[O-])nn1Cc1cccc(Cl)c1Cl` [TCMDC-143152], the “Cmin_Tox” value [1] is listed as over 50 µM and the “CYP51 pIC50” value [3] is listed as under 4.
For `c1ccc(CCNCc2cncc3nc(-c4cnccn4)n(C4CCCCC4)c23)cc1` [TCMDC-143346], the “Cmin_Tox” value [1] is given as over 50 µM and the “CYP51 pIC50” value [3] is given as 7.
In the case of `CC(=O)Nc1ccc(-c2noc(CC3CCCN(Cc4cccc(F)c4C)C3)n2)cc1` (stereo not drawn) [TCMDC-143362], the “Cmin_Tox” value [1] is given as 50.0 µM and the “CYP51 pIC50” value [3] is given as under 4.
For `CNc1cc(C)nc(C2CN(C(=O)c3n[nH]c4ccccc34)CCO2)c1` (stereo not drawn) [TCMDC-143494], the “Cmin_Tox” value [1] is listed as over 50 µM and the “CYP51 pIC50” value [3] is listed as under 4.
In the case of `CC(C)Oc1cccc(N2CCC(C(=O)N3CCCN(C(C)C)CC3)CC2)c1.Cl` [TCMDC-143432], the “Cmin_Tox” value [1] is given as over 50 µM and the “CYP51 pIC50” value [3] is given as under 4.
For `Fc1ccc(OC2CC(NCc3cccc4cn[nH]c34)C2)cc1C(F)(F)F` (stereo not drawn) [TCMDC-143455], the “Cmin_Tox” value [1] is given as 16.7 µM and the “CYP51 pIC50” value [3] is given as 6.9.
For `O=c1[nH]ccc2ccc(-c3ccncc3)cc12` [TCMDC-143631], the “Cmin_Tox” value [1] is given as over 50 µM and the “CYP51 pIC50” value [3] is given as 7.8.
In the case of `COc1cc(-c2nc(N3CCOCC3)sc2-c2ccnc(NC3CCOCC3)n2)ccc1Cl.O=C(O)C(F)(F)F` [TCMDC-143414], the “Cmin_Tox” value [1] is listed as over 50 µM and the “CYP51 pIC50” value [3] is listed as under 4.
For `CN(C)Cc1ccc(-c2ccc(S(=O)(=O)NCC3CCCO3)c(F)c2)cc1.O=C(O)C(F)(F)F` (stereo not drawn) [TCMDC-143085], the “Cmin_Tox” value [1] is listed as over 50 µM and the “CYP51 pIC50” value [3] is listed as 4.4.
For `CN(Cc1ccc(C(N)=O)cc1)C(c1ccc(F)cc1)c1cccnc1` (stereo not drawn) [TCMDC-143504], the “Cmin_Tox” value [1] is given as over 50 µM and the “CYP51 pIC50” value [3] is given as 7.
In the case of `Cc1[nH]c2ccccc2c(=O)c1Cc1c(C)[nH]c2ccccc2c1=O` [TCMDC-143490], the “Cmin_Tox” value [1] is listed as over 50 µM and the “CYP51 pIC50” value [3] is listed as under 4.
In the case of `O=C(CSc1ccc(F)cc1)N[C@@H](Cc1cnc[nH]1)C(=O)NCCc1ccccc1.O=C(O)C(F)(F)F` [TCMDC-143317], the “Cmin_Tox” value [1] is listed as over 50 µM and the “CYP51 pIC50” value [3] is listed as 7.1.
In the case of `Cc1nnnn1-c1cccc(C(=O)N2CCC[C@@]3(C)c4ncncc4CCC23)c1` (stereo partly drawn) [TCMDC-143148], the “Cmin_Tox” value [1] is given as over 50 µM and the “CYP51 pIC50” value [3] is given as 4.6.
For `O=C(c1cccc(Cl)c1Cl)N1CCn2c1nc(-c1ccncc1)cc2=O` [TCMDC-143409], the “Cmin_Tox” value [1] is given as over 50 µM and the “CYP51 pIC50” value [3] is given as 7.2.
For `CCn1nccc1CN(C)C(=O)C=Cc1ccc(Cl)cc1` [TCMDC-143325], the “Cmin_Tox” value [1] is listed as over 50 µM and the “CYP51 pIC50” value [3] is listed as 6.5.
